Like-named read-outs stand apart in the source and are kept apart here. Residues, ends and D or L forms follow the SMILES beside them.
How the values were obtained:
[1] = Desalting and concentration of neutralized mother liquor on flat reverse osmosis membrane; residual rate (Example 2, Table 2); type: physicochemical; settings: pH 5.2, 25°, 40 kg/cm^2 G
Method: Next, water was added until the volume became the original volume. Further by repeating similar operation, the system was desalted and concentrated until the volume became half of the original volume.

[2] = Desalting and concentration of raw solution on spiral polyamide reverse osmosis membranes; inhibition rate of each component (Example 1, Table 1); type: physicochemical; settings: for Inhibition Rate: 40 kg/cm^2
Method: Desalting and concentration were performed, while cyclizing and mixing a non-permeation solution to and with the raw solution.
From the composition of the permeation liquid exhausted in this case, the inhibition rate of each component was calculated according to the following equation. [formula]
Analysis method: liquid chromatography (α-A(M)PM, α-APM, α-AP), (Cl^-).

[3] = Permeability of valuable matters through reverse osmosis membranes (general findings); settings: in words; for permeability of valuable matters: reverse osmosis membrane having NaCl inhibition rate of approximately 30% or more
[4] = cited from earlier work
[5] = not told
[6] = Polyamide Type (A), NaCl inhibition rate 50%
[7] = Polysulfone Type (B), NaCl inhibition rate 25%, comparison
[8] = membrane NaCl inhibition rate 15% (control), immediately after permeation started, pH 4.54, 20° C.
[9] = membrane NaCl inhibition rate 15% (control), when concentrated to 2.5 times, 20° C.
[10] = membrane NaCl inhibition rate 30%, immediately after permeation started, pH 4.54, 20° C.
[11] = membrane NaCl inhibition rate 30%, when concentrated to 2.5 times, 20° C.
[12] = membrane NaCl inhibition rate 60%, immediately after permeation started, pH 4.54, 20° C.
[13] = membrane NaCl inhibition rate 60%, when concentrated to 2.5 times, 20° C.
[14] = membrane NaCl inhibition rate 80%, immediately after permeation started, pH 4.54, 20° C.
[15] = membrane NaCl inhibition rate 80%, when concentrated to 2.5 times, 20° C.

SMILES | Residual Rate [1, 6] [%] | Residual Rate [1, 7] [%] | permeability for reverse osmosis membranes [3] | permeability of valuable matters [3] | permeability through membrane ([2]; in words, conclusion of Example 1) | permeability for reverse osmosis membranes [5] | permeability of valuable matters [5] | Inhibition Rate [2, 8] [%] | Inhibition Rate [2, 9] [%] | Inhibition Rate [2, 10] [%] | Inhibition Rate [2, 11] [%] | Inhibition Rate [2, 12] [%] | Inhibition Rate [2, 13] [%] | Inhibition Rate [2, 14] [%] | Inhibition Rate [2, 15] [%] | stability in aqueous solution ([4]; high temperatures or acidic media) | stability in aqueous solution ([4]; temperatures lower than normal ambient temperatures)
Cl.N [NH4 Cl] | 50.4 | 32.5 | – | – | – | – | – | – | – | – | – | – | – | – | – | – | –
[Cl-].[Na+] [NaCl, sodium chloride] | – | – | – | – | – | – | – | 11.0 | 9.3 | 23.5 | 19.4 | 60.3 | 56.5 | 85.6 | 82.3 | – | –
N[C@@H](CC(=O)O)C(=O)N[C@@H](Cc1ccccc1)C(=O)O [α-AP, α-L-aspartyl-L-phenylalanine] (H-Asp-Phe-OH) | 98.7 | 68.9 | low permeability | low | – | – | – | 81.5 | 85.6 | 98.8 | 98.3 | 99.5 | 99.7 | 99.7 | 99.9 | – | –

More lines, main results first:

Residual Rate [1, 6] [%] | Residual Rate [1, 7] [%] | permeability for reverse osmosis membranes [3] | permeability of valuable matters [3] | permeability through membrane ([2]; in words, conclusion of Example 1) | permeability for reverse osmosis membranes [5] | permeability of valuable matters [5] | SMILES | Inhibition Rate [2, 8] [%] | Inhibition Rate [2, 9] [%] | Inhibition Rate [2, 10] [%] | Inhibition Rate [2, 11] [%] | Inhibition Rate [2, 12] [%] | Inhibition Rate [2, 13] [%] | Inhibition Rate [2, 14] [%] | Inhibition Rate [2, 15] [%] | stability in aqueous solution ([4]; high temperatures or acidic media) | stability in aqueous solution ([4]; temperatures lower than normal ambient temperatures)
97.8 | 60.8 | low permeability | low | – | – | – | COC(=O)C[C@H](N)C(=O)N[C@@H](Cc1ccccc1)C(=O)O [α-A(M)P, methyl ester at the L-aspartic acid β-carboxy residue of α-L-aspartyl-L-phenylalanine] (H-Asp(OMe)-Phe-OH) | – | – | – | – | – | – | – | – | – | –
80.3 | 48.2 | especially high permeability | low | specifically readily permeable | – | – | COC(=O)C[C@H](N)C(=O)N[C@@H](Cc1ccccc1)C(=O)OC [α-A(M)PM, methyl ester of the L-aspartic acid β-carboxyl residue of α-L-aspartyl-L-phenylalanine methyl ester] (H-Asp(OMe)-Phe-OMe) | 56.7 | 59.3 | 82.7 | 84.1 | 91.0 | 92.2 | 93.1 | 93.9 | – | –
98.0 | 60.8 | – | – | – | low permeability | low | COC(=O)[C@H](Cc1ccccc1)NC(=O)[C@@H](N)CC(=O)O [α-APM, α-L-aspartyl-L-phenylalanine methyl ester] (H-Asp-Phe-OMe) | 74.1 | 79.2 | 96.2 | 97.7 | 99.1 | 99.3 | 99.0 | 99.6 | readily undergoes various undesirable reactions | relatively stable
